Test results as given in US20140163050A1, “Use of 1H-quinazoline-2,4-diones” (priority 2011, published 2014).
Where “and” joins values, the source holds several entries; their conditions need not be identical. Identical values can stand only once. Entries after “also recorded” stand apart in the source; their conditions may differ.

System: patients with PSE
Assay: IPS/PPR proof of concept study: suppression of PPR or reduction of SPR after single oral doses
Format: in vivo, human
Parameters: key to Maximum reduction of SPR: Overall reduction, Median: SPR steps (number of frequencies eliciting PPR), range 0-14
Conditions: for duration of maintained suppression of PPR: 2 individual patients; for PD effect of C7 / Effect maintained: reduction of SPR (≧3) / Effect maintained: suppression of PPR / Onset Time of reduction of SPR (≧3) / Onset Time of suppression of PPR: individual patients
Procedure: In patients with photosensitive epilepsy, a standardized photoparoxysmal response range (SPR) may be determined by performing the IPS with a standardized series of flash frequencies, for instance 14 frequencies from a range of 2 to 60 Hz. SPR is a dimensionless parameter and is defined as the number of frequencies (steps) between the lowest and highest frequencies, e.g. between 2 and 60 Hz, that consistently elicit a PPR. If 14 frequencies are tested, the minimum and maximum possible SPR values are 0 and 14. Zero means complete abolition of reactivity on any stimulation frequency, i.e. complete abolishment of the PPR. SPR is relatively stable for each patient and reflects the liability for seizures in daily life. The potential efficacy of an AED could be assessed by measuring hourly changes in the SPR after a single oral dose given to the PSE patients.
The study used the IPS/PPR paradigm. It was a multicenter, non-randomized, single blind, within-subject, placebo-controlled proof of concept study conducted to assess the effect of single oral doses of the compounded formula C-7 in suppressing the photoparoxysmal response (PPR) or reducing the standardized photoparoxysmal response range (SPR) in patients with PSE. Photosensitivity was detected using electroencephalography (EEG) measurements of subjects exposed to Intermittent Photic Stimulation (IPS). This EEG response was a photoparoxysmal response (PPR). For the purpose of the study, provocation of PPRs by IPS, not of seizures, was required. The SPR of each patient was the number of standard visual stimulation frequencies (in Hertz) that the patient was sensitive to, between the lower and upper thresholds. 14 frequencies were tested (from 2 to 60 Hertz). The time of onset and the duration of response (PPR suppression or SPR reduction) to the treatment with Compound C-7 in patients with PSE and the maximal reduction in SPR in patients with PSE were also evaluated.
Women of child-bearing potential (WOCBP) were asked to use acceptable methods of contraception. Patients with an SPR value of 3 or less at the screening and patients with no consistent PPR (less than 3 SPR steps difference between the two evaluations required) when stimulated by intermittent photic stimulation (IPS), as determined by comparison between screening and pre-dose Day 1, were excluded from the study. Furthermore subjects with history of status epilepticus and/or regular use of benzodiazepines as rescue medication, subjects with evidence or history of any medically significant cardiac, respiratory, hepatic, gastrointestinal, renal, hematologic, oncologic or progressive neurological disorder, requiring current medical intervention/therapy likely to have a significant impact on the outcome of this study, were also excluded.
There were three periods: a screening period for the assessment of patient's eligibility for participation in the study; a 3-day in hospital treatment period with single-blind dosing with placebo on days 1 and 3, and the compound of formula C-7 on day 2; and a study completion period consisting of a follow-up call by the medical investigator to the patient between day 10 and day 14 inclusive and a full study completion visit between day 29 and day 33 inclusive.
The dose of the compound of formula C-7 in Cohort studies I, II and III was 50, 100 and 15 mg respectively.

For CC(C)c1cc2[nH]c(=O)n(NS(C)(=O)=O)c(=O)c2cc1-c1ccnn1C [Compound C-7, N-[7-Isopropyl-6-(2-methyl-2H-pyrazol-3-yl)-2,4-dioxo-1,4-dihydro-2H-quinazolin-3-yl]-methanesulfonamide], the “magnitude of the post-treatment effect between doses” value (15, 50, 100 mg) was “dose dependent”, the “PD effect compared to C-7 50 and 100 mg dose groups” value (C-7 15 mg dose group) was “numerically markedly lower PD effect; also recorded: numerically lower but still measurable PD effect” and the “proportion of subjects with suppression of PPR” value (shortened to “proportion of subjects”) (C-7 15 mg dose group) was 33%. The “patients with complete suppression of PPR” value (C-7 15 mg dose group (Cohort III), Day 2) was 1 out of 3 and 1 of 3, the “maintenance of SPR response and PPR suppression” value (C-7 15 mg group) was “none of the patients maintained the SPR response; also recorded: neither the SPR response nor suppression of PPR was maintained” and the “onset of suppression of PPR post dosing” value (C-7 15 mg group, one patient, eye open only, not maintained) was 2 h. The “Maximum reduction of SPR: Overall reduction, Mean (SD)” value (C-7 15 mg, eye closed, n=3) was 6.7 (1.15), the “Maximum reduction of SPR: Overall reduction, Median” value (C-7 15 mg, eye closed, n=3) was 6.0 and the “Maximum reduction of SPR: Reduction from predose Day 2, Mean (SD)” value (“Maximum reduction of SPR: Reduction … (SD)” below) (C-7 15 mg, eye closed, n=3) was 5.0 (3.61). For the same compound, the “Maximum reduction of SPR: Reduction from predose Day 2, Median” value (C-7 15 mg, eye closed, n=3) was 6.0, the “Maximum reduction of SPR: Overall reduction, Mean (SD)” value (C-7 15 mg, eye closure, n=3) was 8.0 (1.73) and the “Maximum reduction of SPR: Overall reduction, Median” value (C-7 15 mg, eye closure, n=3) was 9.0. For the same compound, the “Maximum reduction of SPR: Reduction … (SD)” value (C-7 15 mg, eye closure, n=3) was 7.3 (2.89), the “Maximum reduction of SPR: Reduction from predose Day 2, Median” value (C-7 15 mg, eye closure, n=3) was 9.0 and the “Maximum reduction of SPR: Overall reduction, Mean (SD)” value (C-7 15 mg, eyes open, n=3) was 4.0 (3.46). For the same compound, the “Maximum reduction of SPR: Overall reduction, Median” value (C-7 15 mg, eyes open, n=3) was 2.0, the “Maximum reduction of SPR: Reduction … (SD)” value (C-7 15 mg, eyes open, n=3) was 3.0 (4.36) and the “Maximum reduction of SPR: Reduction from predose Day 2, Median” value (C-7 15 mg, eyes open, n=3) was 1.0. For the same compound, the “AUECt on Day 2 compared to Day 1” value (C-7 50 mg and 100 mg dose groups, all eye conditions) was “significantly lower”, the “proportion of subjects” value (C-7 50 mg dose group) was 50% and the “patients with complete suppression of PPR” value (C-7 50 mg dose group (Cohort I), Day 2) was 3 of 6. The “patients with reductions of the SPR range by at least 3 steps in at least one eye condition” value (C-7 50 mg dose group (Cohort I, 6 patients), Day 2) was 6 patients, the “duration of maintained suppression of PPR” value (C-7 50 mg group) was 2 h and 7 h and the “Maximum reduction of SPR: Overall reduction, Mean (SD)” value (C-7 50 mg, eye closed, n=6) was 6.0 (2.37). The “Maximum reduction of SPR: Overall reduction, Median” value (C-7 50 mg, eye closed, n=6) was 6.0, the “Maximum reduction of SPR: Reduction … (SD)” value (C-7 50 mg, eye closed, n=6) was 5.0 (2.00) and the “Maximum reduction of SPR: Reduction from predose Day 2, Median” value (C-7 50 mg, eye closed, n=6) was 5.0. The “Maximum reduction of SPR: Overall reduction, Mean (SD)” value (C-7 50 mg, eye closure, n=6) was 7.7 (3.01), the “Maximum reduction of SPR: Overall reduction, Median” value (C-7 50 mg, eye closure, n=6) was 8.5 and the “Maximum reduction of SPR: Reduction … (SD)” value (C-7 50 mg, eye closure, n=6) was 6.5 (2.95). For the same compound, the “Maximum reduction of SPR: Reduction from predose Day 2, Median” value (C-7 50 mg, eye closure, n=6) was 7.5, the “Maximum reduction of SPR: Overall reduction, Mean (SD)” value (C-7 50 mg, eyes open, n=6) was 6.8 (2.99) and the “Maximum reduction of SPR: Overall reduction, Median” value (C-7 50 mg, eyes open, n=6) was 7.5. For the same compound, the “Maximum reduction of SPR: Reduction … (SD)” value (C-7 50 mg, eyes open, n=6) was 4.8 (3.43), the “Maximum reduction of SPR: Reduction from predose Day 2, Median” value (C-7 50 mg, eyes open, n=6) was 6.5 and the “proportion of subjects” value (C-7 100 mg dose group) was 75%. The “time to maximum reduction of SPR compared to the other 2 dose groups” value (C-7 100 mg dose group) was “shorter”, the “patients with complete suppression of PPR” value (C-7 100 mg dose group (Cohort II), Day 2) was 3 out of 4 and 3 of 4 and the “duration of maintained suppression of PPR” value (C-7 100 mg group) was 4 h and 3 h. For the same compound, the “Maximum reduction of SPR: Overall reduction, Mean (SD)” value (C-7 100 mg, eye closed, n=4) was 7.5 (2.38), the “Maximum reduction of SPR: Overall reduction, Median” value (C-7 100 mg, eye closed, n=4) was 8.5 and the “Maximum reduction of SPR: Reduction … (SD)” value (C-7 100 mg, eye closed, n=4) was 6.5 (2.38). For the same compound, the “Maximum reduction of SPR: Reduction from predose Day 2, Median” value (C-7 100 mg, eye closed, n=4) was 6.5, the “Maximum reduction of SPR: Overall reduction, Mean (SD)” value (C-7 100 mg, eye closure, n=4) was 9.3 (2.22) and the “Maximum reduction of SPR: Overall reduction, Median” value (C-7 100 mg, eye closure, n=4) was 10.0. For the same compound, the “Maximum reduction of SPR: Reduction … (SD)” value (C-7 100 mg, eye closure, n=4) was 8.3 (1.50), the “Maximum reduction of SPR: Reduction from predose Day 2, Median” value (C-7 100 mg, eye closure, n=4) was 9.0 and the “Maximum reduction of SPR: Overall reduction, Mean (SD)” value (C-7 100 mg, eyes open, n=4) was 8.8 (2.50). For the same compound, the “Maximum reduction of SPR: Overall reduction, Median” value (C-7 100 mg, eyes open, n=4) was 8.5, the “Maximum reduction of SPR: Reduction … (SD)” value (C-7 100 mg, eyes open, n=4) was 7.0 (1.41) and the “Maximum reduction of SPR: Reduction from predose Day 2, Median” value (C-7 100 mg, eyes open, n=4) was 6.5. The “maximum duration of maintenance of suppression of PPR” value (C-7 50 and 100 mg dose groups) was 7 h, the “duration of maintained SPR response (maximum duration of maintenance)” value (C-7 50 and 100 mg dose groups, patients staying in responding status) was 33 h and the “PD effect of C7” value (Cohort I, C-7 50 mg single oral dose) was “Suppression of PPR^e; also recorded: Reduction of SPR (≧3)”. The “Effect maintained: reduction of SPR (≧3)” value (Cohort I, C-7 50 mg) was “No (4×) and Yes (2×)”, the “Effect maintained: suppression of PPR” value (Cohort I, C-7 50 mg) was “No (2×) and Yes (2×)” and the “Onset Time of reduction of SPR (≧3)” value (Cohort I, C-7 50 mg) was 2 h (2×) and 1 h (3×). The “Onset Time of suppression of PPR” value (Cohort I, C-7 50 mg) was 2 h and 3 h and 4 h, the “PD effect of C7” value (Cohort II, C-7 100 mg single oral dose) was “Suppression of PPR; also recorded: Reduction of SPR (≧3)” and the “Effect maintained: reduction of SPR (≧3)” value (Cohort II, C-7 100 mg) was “No (3×) and Yes”. The “Effect maintained: suppression of PPR” value (Cohort II, C-7 100 mg) was “Yes (2×) and No”, the “Onset Time of reduction of SPR (≧3)” value (Cohort II, C-7 100 mg) was 1 h (3×) and 2 h and the “Onset Time of suppression of PPR” value (Cohort II, C-7 100 mg) was 2 h (2×) and 3 h. For the same compound, the “PD effect of C7” value (Cohort III, C-7 15 mg single oral dose) was “Suppression of PPR^e; also recorded: Reduction of SPR (≧3)”, the “Effect maintained: reduction of SPR (≧3)” value (Cohort III, C-7 15 mg) was “No” and the “Effect maintained: suppression of PPR” value (Cohort III, C-7 15 mg) was “No”. The “Onset Time of reduction of SPR (≧3)” value (Cohort III, C-7 15 mg) was 1 h, the “Onset Time of suppression of PPR” value (Cohort III, C-7 15 mg) was 2 h and the “patients with reductions of the SPR range by at least 3 steps in at least one eye condition” value (Cohorts II and III (100 mg and 15 mg, 7 patients), Day 2) was 7 patients. For the same compound, the “patients who showed suppression of PPR (Table 2 count)” value (all dose groups, 13 patients, includes suppression noted already at 0 hours) was 9 patients, the “patients with complete suppression of PPR” value (all three dose groups (15, 50, 100 mg)) was 7 of the 13 and 7 of 13 and the “impact of concomitant treatment with selected AEDs on the PD effect of C-7” value (valproate, lamotrigine, levetiracetam, topiramate, zonisamide as concomitant AEDs) was “did not appear to relevantly impact the PD effect”.
